# Source: patent publication US10709765B2, “Composition for inhibiting survival or growth of tubercle bacillus by adjusting polarization of macrophage, and method using same” (priority 2016, dated 2020)
# Like-named read-outs stand apart in the source and are kept apart here.
# Test system: Mycobacterium tuberculosis
# Assay type: cell-based
# [1] = anti-tuberculosis drug alone, […]
SMILES,number of intracellular Mycobacterium tuberculosis,number of intracellular Mycobacterium tuberculosis [1]
CC[C@@H](CO)NCCN[C@@H](CC)CO [Ethambutol],the number of Mycobacterium tuberculosis was reduced,
NNC(=O)c1ccncc1 [Isoniazid],,the number of Mycobacterium tuberculosis was reduced
NC(=O)c1cnccn1 [Pyrazinamide],,the number of Mycobacterium tuberculosis was reduced
